Molecules are shown by their SMILES. A value given as a limit tells only on which side of the number the result lay.

The subject of one series is SNL model. The experiment in a line: Antiallodynic activity on Chung model (SNL, spinal nerve ligation; von Frey). The series is classed as in vivo, Sprague-Dawley rats. The settings on record: 0.5 h, rat, oral, read-out: SNL model: effect (%) at the concentration administered. Here is the method:
Male. Sprague-Dawley rats (200-220 g, Orient Bio, Korea) were habituated for 1 week before the experiment and allowed free access to food and water throughout the experimentation. Room temperature and humidity were maintained at 24±2° C. and 50±10%, respectively. Neuropathic surgery (SNL, Spinal nerve ligation) model was clone as described in Kim and Chung (1992). Briefly, animal under gaseous anesthesia with isoflurane a 4:4 flow ratio of NO2. The left lumber spinal nerve L5 and L6 were isolated and tightly ligated with 4-0 silk thread. The wound was treated with a gentamicin antibiotics solution (4 mg/kg, 4 ul/g, bw), and the wound muscle was closed with cat cut chrom 4/0 thread and skin was closed dafilon 4/0 tread. Sham controls were prepared in the same manner as the spinal nerves were exposed, but no ligated L5 and L6 nerves. But, vehicle controls were identical to SNL model, except for administration of vehicles.
(§1) Tactile sensitivity (Mechanical allodynia) was evaluated using von Frey monofilaments before and after treatment and animals were used withdrawal threshold value was less than 4 g. One week after surgery, SNL-operated animals (n=4˜6), sham-operated animals (n=4˜10) and vehicle-operated animals (n=4˜13) were tested for tactile sensitivity with von Frey monofilaments 3 trials in each animal. All Animals were placed in a stainless steel mashed chamber and habituated for 30 min in the test box. The tactile sensitivity for ipsilateral hind paw was measured using the up-and-down method (Dixon, 1980) with seven von Frey monofilaments (0.4, 1, 2, 4, 6, 8, and 15 g) to 3 trials. Tactile sensitivity test was followed by Dixon's method (Dixon, 1980). The 50% paw withdrawal threshold for each paw was calculated using the following formula: [Xth] log=[vFr] log+ky where [vFr] is the force of the last von Frey used, k=0.2249 which is the average interval (in log units) between the von Frey monofilaments, and y is a value that depends upon the pattern of withdrawal responses (Dixon, 1980).
All animals were fasted 18 h before the administration of the compounds. The antiallodynic effect of the compounds were evaluated at the various dose (n=5˜6), orally administrated in a volume of 5 ul/g, bw in a vehicle of 30% (v/v) PEG 400 or 20% (v/v) Tween 80 or Saline. […]
The relative values compared to the sham group (% control) were calculated and shown in Table 5, which show an antiallodynic effect of the test compounds on SNL model in rats.

The test system of a further series is CFA-induced pain model. The experiment in a line: Antiallodynic activity on Complete Freund's Adjuvant (CFA)-induced inflammatory pain model (von Frey). The series is classed as in vivo, Sprague-Dawley rats. The settings on record: rat, intraperitoneal; for response vs control in vivo at 18 mg/kg / response vs control in vivo at 40 mg/kg / response vs control in vivo at 60 mg/kg: Rattus norvegicus, read-out: CFA model: effect (%) at the concentration administered. Here is the method:
Male, Sprague-Dawley rats (200-220 g, Nara Bio, Korea) were habituated for 1 week before surgery and allowed free access to food and water throughout the experimentation. Room temperature and humidity were maintained at 24±2° C. and 50±10%, respectively.
CFA-induced inflammatory pain was induced by the procedure of Nagakura et al. (2003) and Gregory P. et al. (2010) with minor modifications. CFA (sigma, USA) was injected in the left plantar with a 100 ul volume under gaseous anesthesia with isoflurane a 4:4 flow ratio of NO2 Sham controls were injected with 100 ul of saline and vehicle controls were identical to CFA infusion model, except for administration of vehicles.
as §1, with “treatment,” for “treatment”, “CFA-infused” for “SNL-operated”, “(n=12),” for “(n=4˜10)”, “(n=17)” for “(n=4˜13)”
[…] The test was performed peak time of efficacy (0.5 hr) after compound administration.
The relative values compared to the sham (% control) were calculated and shown in Table 4, which show an antiallodynic effect of the compound of Examples on CFA-induced pain model in rats.

In the case of `CC1(C)O[C@H](c2ccccc2I)[C@@H](COS(N)(=O)=O)O1` [Example 27, ((4R,5R)-5-(2-iodophenyl)-2,2-dimethyl-1,3-dioxolan-4-yl)methyl sulfamate], in the series on SNL model, the response vs control in vivo at 50 mg/kg is 17.3%. For the same compound, in the series with CFA-induced pain model (ip, 0.5 h, 0.5 h), the response vs control in vivo at 18 mg/kg was 20.2%.
For the compound `Nc1ccccc1[C@@H]1OC2(CCCC2)O[C@H]1COS(N)(=O)=O` [Example 72, ((2S,3S)-3-(2-aminophenyl)-1,4-dioxaspiro[4,4]nonan-2-yl)methyl sulfamate], the response vs control in vivo at 50 mg/kg in the series on SNL model turned out to be 35.1%. Further, in the series with CFA-induced pain model (ip, 0.5 h, 0.5 h), the response vs control in vivo at 40 mg/kg worked out at 22.6%.
Regarding `Nc1ccccc1[C@@H]1OC(c2ccccc2)O[C@H]1COS(N)(=O)=O` (stereo partly drawn) [Example 76, ((4S,5S)-5-(2-aminophenyl)-2-phenyl-1,3-dioxolan-4-yl)methyl sulfamate], in the series on SNL model, the response vs control in vivo at 90 mg/kg worked out at 22.9%. Besides, the response vs control in vivo at 40 mg/kg with CFA-induced pain model (ip, 0.5 h, 0.5 h) was found to be 25.7%.
On to `Cc1ccccc1[C@@H]1OC(C)(C)O[C@H]1COS(N)(=O)=O` [Example 92, ((4S,5S)-5-(2-methylphenyl)-2,2-dimethyl-1,3-dioxolan-4-yl)methyl sulfamate], for which the response vs control in vivo at 50 mg/kg with SNL model turned out to be 37.3%. Moreover, in the series with CFA-induced pain model (ip, 0.5 h, 0.5 h), the response vs control in vivo at 18 mg/kg was found to be 22.3%.
The corresponding values for `CC1(C)O[C@@H](COS(N)(=O)=O)[C@H](c2ccccc2)O1` [Example 106, ((4S,5S)-5-phenyl-2,2-dimethyl-1,3-dioxolan-4-yl)methyl sulfamate] are 25.4% and 23.2%.
In the case of `NS(=O)(=O)OCC[C@H]1OC2(CCCC2)O[C@@H]1Cc1ccccc1` [Example 118, 2-((2R,3R)-3-benzyl-1,4-dioxaspiro[4,4]nonan-2-yl)ethyl sulfamate], in the series on SNL model, the response vs control in vivo at 90 mg/kg amounted to 38.3%. In addition, the response vs control in vivo at 40 mg/kg in the series with CFA-induced pain model (ip, 0.5 h, 0.5 h) is 25%.
As for `CC1(C)O[C@H](COS(N)(=O)=O)[C@@H](Cc2ccccc2)O1` [Example 122, ((4R,5R)-5-benzyl-2,2-dimethyl-1,3-dioxolan-4-yl)methyl sulfamate], the response vs control in vivo at 50 mg/kg in the series with SNL model was 64.1%. Moreover, in the series on CFA-induced pain model (ip, 0.5 h, 0.5 h), the response vs control in vivo at 18 mg/kg was 22.3%.
Consider `CC1(C)O[C@H](CCOS(N)(=O)=O)[C@@H](Cc2ccccc2Cl)O1` [Example 138, 2-((4R,5R)-5-(2-chlorobenzyl)-2,2-dimethyl-1,3-dioxolan-4-yl)ethyl sulfamate], for which the response vs control in vivo at 90 mg/kg with SNL model was determined as 71.4%. The response vs control in vivo at 40 mg/kg in the series on CFA-induced pain model (ip, 0.5 h, 0.5 h) was determined as 32.7%.
Taken in the same sequence, the figures for `CC1(C)O[C@H](COS(N)(=O)=O)[C@@H](Cc2ccccc2Cl)O1` [Example 146, ((4R,5R)-5-(2-chlorobenzyl)-2,2-dimethyl-1,3-dioxolan-4-yl)methyl sulfamate] were 45.8% and 16.5%.
On to `CCC1(CC)O[C@@H](CCOS(N)(=O)=O)[C@H](c2ccccc2Cl)O1` [Example 156, 2-((4S,5S)-5-(2-chlorophenyl)-2,2-diethyl-1,3-dioxolan-4-yl)ethyl sulfamate], for which the response vs control in vivo at 40 mg/kg in the series with CFA-induced pain model (ip, 0.5 h, 0.5 h) turned out to be 30.8%.
Same read-out and setting: with `NS(=O)(=O)OCC[C@@H]1OC2(CCCC2)O[C@H]1c1ccccc1Cl` [Example 158, 2-((2S,3S)-3-(2-chlorophenyl)-1.4-dioxaspiro[4,4]nonan-2-yl)ethyl sulfamate] the figure was 29.8%; with `NS(=O)(=O)OCC[C@@H]1OC2(CCCCC2)O[C@H]1c1ccccc1Cl` [Example 160, 2-((2S,3S)-3-(2-chlorophenyl)-1,4-dioxaspiro[4,5]decan-2-yl)ethyl sulfamate], 38.4%; with `CC1(C)O[C@H](c2sc(Cl)nc2Cl)[C@@H](COS(N)(=O)=O)O1` [Example 163, ((4R,5S)-5-(2,4-dichlorothiazol-5-yl)-2,2-dimethyl-1,3-dioxolan-4-yl)methyl sulfamate], 23.1%.
In the case of `CC1(C)O[C@@H](COS(N)(=O)=O)[C@H](c2sc(Cl)nc2Cl)O1` [Example 164, ((4S,5R)-5-(2,4 dichlorothiazol-5-yl)-2,2-dimethyl-1,3-dioxolan-4-yl)methyl sulfamate], in the series with CFA-induced pain model (ip, 0.5 h, 0.5 h), the response vs control in vivo at 60 mg/kg was found to be 66.8%.
In general, ED50 refers to the dose at which the effect has come halfway, by size or by number of responders. On to `CC1(C)O[C@H](c2cnc(Cl)s2)[C@@H](COS(N)(=O)=O)O1` [Example 165, ((4R,5S)-5-(2-chlorothiazol-5-yl)-2,2-dimethyl-1,3-dioxolan-4-yl)methyl sulfamate], for which the ED50 in the series on CFA-induced pain model (ip, von Frey, 0.5 h) was over 60 mg/kg. Further, the “CFA model: adverse observation” value in the series with CFA-induced pain model (noted with ED50 >60 mg/kg) is on record as “Seizure”.
As for `Cc1ncsc1[C@H]1OC(C)(C)O[C@@H]1COS(N)(=O)=O` [Example 167, ((4R,5S)-2,2-dimethyl-5-(4-methylthiazol-5-yl)-1,3-dioxolan-4-yl)methyl sulfamate], the response vs control in vivo at 60 mg/kg in the series with CFA-induced pain model (ip, 0.5 h, 0.5 h) amounted to 38.6%.
Still for that read-out and setting: with `Cc1ncsc1[C@@H]1OC(C)(C)O[C@H]1COS(N)(=O)=O` [Example 168, ((4S,5R)-2,2-dimethyl-5-(4-methylthiazol-5-yl)-1,3-dioxolan-4-yl)methyl sulfamate] the figure was 77.2%; with `Cc1nc(Cl)sc1[C@@H]1OC(C)(C)O[C@H]1COS(N)(=O)=O` [Example 170, ((4S,5R)-2,2-dimethyl-5-(2-chloro-4-methylthiazol-5-yl)-1,3-dioxolan-4-yl)methyl sulfamate], 24.2%.
In the case of `CC1(C)O[C@@H](COS(N)(=O)=O)[C@H](c2ccsc2)O1` [Example 171, ((4S,5S)-2,2-dimethyl-5-(thiophen-3-yl)-1,3-dioxolan-4-yl)methyl sulfamate], the response vs control in vivo at 60 mg/kg in the series with CFA-induced pain model (ip, 0.5 h, 0.5 h) was determined as 29.8%.
Still for that read-out and setting: the figure for `CC1(C)O[C@@H](COS(N)(=O)=O)[C@H](c2ccc(Cl)s2)O1` [Example 172, ((4S,5R)-2,2-dimethyl-5-(5-chlorothiophen-2-yl)-1,3-dioxolan-4-yl)methyl sulfamate] is 35.9%; for `CC1(C)OC(COS(N)(=O)=O)C(c2ccncc2Cl)O1` (stereo not shown) [Example 173, (5-(3-chloropyridin-4-yl)-2,2-dimethyl-1,3-dioxolan-4-yl)methyl sulfamate] it is 33.9%.
Turning to `CC1(C)OC(COS(N)(=O)=O)C(c2cnccc2Cl)O1` (stereo not shown) [Example 174, (5-(4-chloropyridin-3-yl)-2,2-dimethyl-1,3-dioxolan-4-yl)methyl sulfamate], the response vs control in vivo at 60 mg/kg with CFA-induced pain model (ip, 0.5 h, 0.5 h) worked out at 24.7%.
The same measure, in the same setting: the figure for `CC1(C)OC(COS(N)(=O)=O)C(c2cncnc2)O1` (stereo not shown) [Example 175, 2,2-dimethyl-5-(pyrimidin-5-yl)-1,3-dioxolan-4-yl)methyl sulfamate] is 44.4%.
Take `CC1(C)OC(COS(N)(=O)=O)C(c2cnc(Cl)nc2)O1` (stereo not shown) [Example 176, (2,2-dimethyl-5-(2-chloropyrimidin-5-yl)-1,3-dioxolan-4-yl)methyl sulfamate]: the response vs control in vivo at 60 mg/kg in the series on CFA-induced pain model (ip, 0.5 h, 0.5 h) was found to be 40%.
